Data: US11260023B2, “Topical compositions containing rofecoxib and methods of making and using the same” (BRIORI BIOTECH, LLC, priority 2020, dated 2022)
Where “and” joins values, the source holds several entries; their conditions need not be identical. Equal values may be shown once.

Test: Solubility of rofecoxib in solvent systems containing two or three solvents; synergistic or antagonist effect
Assay type: physicochemical
Method: The solubility of rofecoxib in solvent systems containing two or three solvents was determined. In solvent systems containing two solvents, […] of each solvent was added to 100 mg of rofecoxib. In solvent systems containing three solvents, […] of each solvent was added to 100 mg of rofecoxib. The samples were mixed using the protocol for solvent systems containing single solvents above. Serial dilutions of the rofecoxib solvent solutions were made (1:100 v:v), (1:1000 v/v), and (1:2000 v/v). Solvents without rofecoxib were diluted with methanol and used to blank a Beckman DU-7400 spectrophotometer. The absorbance of the samples was determined at a wavelength of 279.1 nm. The concentration of rofecoxib dissolved in the solvent was calculated using Beer's Law. The ability of the solvent systems to synergistically dissolve rofecoxib or antagonistically dissolve rofecoxib (reduce the ability of rofecoxib to dissolve was determined) according to the protocol below. The contribution for solubility of a single solvent in a two-mixture solution was calculated to be ½ of the calculated solubility of rofecoxib in one gram of excipient. Likewise, the contribution for solubility of a three-mixture was calculated to be ⅓ of the calculated solubility of rofecoxib in one gram of excipient. The expected solubility for a mixture is the addition of the contribution of each excipient. […] The percent change between the expected solubility and actual solubility was determined. […] Similar calculations are utilized for solvent systems containing three or more solvents.

- expected solubility of rofecoxib in 500 μg of acetone (contribution of acetone in system of equal amounts acetone and benzyl alcohol): 11.79 mg/g
- expected solubility of rofecoxib in 500 μg of benzyl alcohol (contribution of benzyl alcohol in system of equal amounts acetone and benzyl alcohol): 9.77 mg/g
- % Change (observed vs expected solubility) (in AC + DGME): 139.9%
- Expected Solubility (in AC + DGME): 16.30 mg/g
- Observed Solubility (in AC + DGME): 22.80 mg/g
- % Change (observed vs expected solubility) (in AC + EA): 109.7%
- Expected Solubility (in AC + EA): 14.52 mg/g
- Observed Solubility (in AC + EA): 15.92 mg/g
- % Change (observed vs expected solubility) (in AC + MP): 97.9% and 52.7%
- Expected Solubility (in AC + MP): 110.77 mg/g
- Observed Solubility (in AC + MP): 108.48 mg/g and 58.38 mg/g
- % Change (observed vs expected solubility) (in AC + MP + PEG): 34.29%
- Expected Solubility (in AC + MP + PEG): 78.24 mg/g
- % Change (observed vs expected solubility) (in AC + MP + PGD): 77.19%
- Expected Solubility (in AC + MP + PGD): 76.17 mg/g
- % Change (observed vs expected solubility) (in AC + PEG): 137.2% and 174.3%
- Expected Solubility (in AC + PEG): 18.34 mg/g
- Observed Solubility (in AC + PEG): 25.15 mg/g and 31.96 mg/g
- Expected Solubility (in AC + PEG + PGD): 14.55 mg/g
- % Change (observed vs expected solubility) (in AC + PGD): 124.0% and 113.7%
- Expected Solubility (in AC + PGD): 15.23 mg/g
- Observed Solubility (in AC + PGD): 18.88 mg/g and 17.32 mg/g
- % Change (observed vs expected solubility) (in BA + AC): 150.7% and 134.8% and 100.7% and 185.3%
- Expected Solubility (in BA + AC): 21.54 mg/g and 31.65 mg/g
- % Change (observed vs expected solubility) (in BA + AC + MP): 48.23%
- Expected Solubility (in BA + AC + MP): 80.37 mg/g
- Expected Solubility (in BA + AC + PEG): 18.75 mg/g
- % Change (observed vs expected solubility) (in BA + AC + PGD): 197.12%
- Expected Solubility (in BA + AC + PGD): 16.68 mg/g
- Observed Solubility (in BA + AC + PGD): 32.89 mg/g
- Expected Solubility (in BA + AC, listed as rofecoxib): 21.56 mg/g
- % Change (observed vs expected solubility) (in BA + DGME): 64.2%
- Expected Solubility (in BA + DGME): 14.31 mg/g
- Observed Solubility (in BA + DGME): 9.18 mg/g
- % Change (observed vs expected solubility) (in BA + EA): 116.8%
- Expected Solubility (in BA + EA): 12.52 mg/g
- Observed Solubility (in BA + EA): 14.63 mg/g
- % Change (observed vs expected solubility) (in BA + MP): 41.3% and 30.8%
- Expected Solubility (in BA + MP): 108.77 mg/g
- Observed Solubility (in BA + MP): 44.97 mg/g and 33.53 mg/g
- % Change (observed vs expected solubility) (in BA + MP + PEG): 40.43%
- Expected Solubility (in BA + MP + PEG): 76.89 mg/g
- % Change (observed vs expected solubility) (in BA + MP + PGD): 85.42%
- Expected Solubility (in BA + MP + PGD): 74.82 mg/g
- % Change (observed vs expected solubility) (in BA + PEG): 63.2% and 61.6% and 60.6%
- Expected Solubility (in BA + PEG): 16.34 mg/g
- Observed Solubility (in BA + PEG): 10.33 mg/g and 10.06 mg/g and 9.91 mg/g
- Expected Solubility (in BA + PEG + PGD): 13.20 mg/g
- % Change (observed vs expected solubility) (in BA + PGD): 110.9% and 103.2%
- Expected Solubility (in BA + PGD): 13.24 mg/g
- Observed Solubility (in BA + PGD): 14.67 mg/g and 13.66 mg/g
- % Change (observed vs expected solubility) (in DGME + EA): 117.3%
- Expected Solubility (in DGME + EA): 7.29 mg/g
- Observed Solubility (in DGME + EA): 8.54 mg/g
- % Change (observed vs expected solubility) (in DGME + PGD): 115.7%
- Expected Solubility (in DGME + PGD): 8.00 mg/g
- Observed Solubility (in DGME + PGD): 9.26 mg/g
- % Change (observed vs expected solubility) (in DI + AC): 134.6%
- Expected Solubility (in DI + AC): 31.34 mg/g
- Observed Solubility (in DI + AC): 42.18 mg/g
- % Change (observed vs expected solubility) (in DI + BA): 72.3%
- Expected Solubility (in DI + BA): 29.34 mg/g
- Observed Solubility (in DI + BA): 21.20 mg/g
- % Change (observed vs expected solubility) (in DI + BA + DMSO): 85.05%
- Expected Solubility (in DI + BA + DMSO): 67.43 mg/g
- % Change (observed vs expected solubility) (in DI + BA + PC): 155.19%
- Expected Solubility (in DI + BA + PC): 36.04 mg/g
- Observed Solubility (in DI + BA + PC): 55.93 mg/g
- % Change (observed vs expected solubility) (in DI + DGME): 95.0%
- Expected Solubility (in DI + DGME): 24.11 mg/g
- Observed Solubility (in DI + DGME): 22.91 mg/g
- % Change (observed vs expected solubility) (in DI + EA): 69.9%
- Expected Solubility (in DI + EA): 22.32 mg/g
- Observed Solubility (in DI + EA): 15.60 mg/g
- % Change (observed vs expected solubility) (in DI + MP): 71.6%
- Expected Solubility (in DI + MP): 118.57 mg/g
- Observed Solubility (in DI + MP): 84.92 mg/g
- % Change (observed vs expected solubility) (in DI + PC): 133.9% and 130.6%
- Expected Solubility (in DI + PC): 44.29 mg/g
- Observed Solubility (in DI + PC): 59.30 mg/g and 57.83 mg/g
- % Change (observed vs expected solubility) (in DI + PC + AC): 143.72%
- Expected Solubility (in DI + PC + AC): 37.38 mg/g
- Observed Solubility (in DI + PC + AC): 53.73 mg/g
- % Change (observed vs expected solubility) (in DI + PC + BA): 132.30%
- Expected Solubility (in DI + PC + BA): 36.04 mg/g
- Observed Solubility (in DI + PC + BA): 47.68 mg/g
- % Change (observed vs expected solubility) (in DI + PC + DGME): 123.28%
- Expected Solubility (in DI + PC + DGME): 32.55 mg/g
- Observed Solubility (in DI + PC + DGME): 40.12 mg/g
- % Change (observed vs expected solubility) (in DI + PC + DMSO): 114.83%
- Expected Solubility (in DI + PC + DMSO): 77.39 mg/g
- % Change (observed vs expected solubility) (in DI + PC + EA): 128.04%
- Expected Solubility (in DI + PC + EA): 31.36 mg/g
- Observed Solubility (in DI + PC + EA): 40.15 mg/g
- % Change (observed vs expected solubility) (in DI + PC + PEG): 119.10%
- Expected Solubility (in DI + PC + PEG): 33.90 mg/g
- Observed Solubility (in DI + PC + PEG): 40.38 mg/g
- % Change (observed vs expected solubility) (in DI + PC + PGD): 115.12%
- Expected Solubility (in DI + PC + PGD): 31.83 mg/g
- Observed Solubility (in DI + PC + PGD): 36.65 mg/g
- % Change (observed vs expected solubility) (in DI + PEG): 105.8%
- Expected Solubility (in DI + PEG): 26.14 mg/g
- Observed Solubility (in DI + PEG): 27.65 mg/g
SMILES: CS(=O)(=O)c1ccc(C2=C(c3ccccc3)C(=O)OC2)cc1 [Rofecoxib]
- Synergistic effect of three-solvent systems on dissolving rofecoxib (AC/PEG/PGD, BA/AC/PEG, BA/PEG/PGD, PC/AC/PGD, BA/AC/PGD, PC/PEG/PGD, DI/PC/AC, PC/BA/AC, DI/PC/BA, DI/PC/EA, PC/AC/PEG, DI/PC/DGME, DI/PC/PEG, DI/PC/PGD, DI/BA/PC, DI/PC/DMSO): work synergistically to dissolve rofecoxib
- Synergistic effect of two-solvent systems on dissolving rofecoxib (BA/AC, AC/PEG, EA/PPG, PEG/EA, AC/DGME, AC/PC, AC/DI, PC/DI, PEG/PGD, AC/PGD, DI/PGD, PC/PGD, EA/DMSO, PEG/DGME, EA/DGME, EA/BA, DGME/PGD, BA/PGD, EA/M24D): work synergistically to dissolve rofecoxib
- Observed Solubility (in BA + AC): 32.46 mg/g and 29.03 mg/g and 31.86 mg/g and 39.91 mg/g
